Values of other authors as cited in US20260237528A1, “DRUG COMBINATIONS SCREENING” (Hoffmann-La Roche Inc., priority 2023, published 2026).

Tested on: tumour growth
Conditions: tested alone

N=C(N)c1ccc(OCCCCCOc2ccc(C(=N)N)cc2)cc1 [pentamidine]
anti-tumour activity: Neither of these drugs showed any anti-tumour activity when tested alone

CN(C)CCCN1c2ccccc2Sc2ccc(Cl)cc21 [chlorpromazine]
anti-tumour activity: Neither of these drugs showed any anti-tumour activity when tested alone
